Test results from patent EP1785417A2, “Novel non-psychotropic cannabinoids” (priority 2000, dated 2001).
Read-outs that look alike come from different tables or passages of the source.

Experiments:
NMDA receptor = test: Radioligand binding: displacement of [3H]MK-801 from rat forebrain membranes; details: for NMDA receptor binding / affinity: MK-801 binding to membranes
Procedure, shortened: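 Test compounds competed with tritium-labelled MK-801 for binding to brain membranes, a read-out of non-competitive NMDA antagonism.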

PGE2 = test: Inhibition of prostaglandin synthesis (PGE2) in LPS-stimulated macrophage cell cultures; format: cell-based; details: LPS-stimulated macrophages
Procedure, shortened: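 Prostaglandin synthesis measured in macrophage cell cultures after LPS exposure to induce an inflammatory response, with compounds tested for inhibition.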

[1] = test system: rats following Closed Head Injury (CHI); test: Rat model of closed head injury (cerebral edema, NSS); format: in vivo; details: for Neurological score 1hr / ΔNSS 24hr / Neurological score 24hr / Water content Left / Water content Right: rats, CHI; for Neurological score 1hr: 1 hr after injury; for Neurological score 24hr: 24 hr after injury; for Water content Left / Water content Right: doses of 5-10 mg/kg
Protocol: The cerebroprotective effect of PRS-211 compounds was assessed in a model of head trauma (HT) in rats. Injury was induced in anesthetized rats by a weight-drop device followed by a recovery period of up to 48 hours. This type of trauma produces brain edema (i.e. increase in water content, decrease in specific gravity in the brain), breakdown of the blood brain barrier (BBB) and clinical dysfunction. The clinical status of the rats was evaluated 1, 24 and 48 hours after injury along with measuring the extent of cerebral edema. The neurological deficit, assessed by a set of criteria termed the Neurological Severity Score (NSS), is maximal at 1 hour after the initiation of head trauma. The NSS slowly decreases over time from the initiation of HT, with the gradual spontaneous recovery of the rats.
The model was described in detail by Shapira et al., Crit. Care Med. 16:258-265, 1988. Rats were subjected to head trauma (HT) by a weight-drop device and surviving rats were followed up after one week. During that period they had free access to food and water, and were kept 2-3 rats to a cage. At any predesignated time (15 min, 1, 4, 24, 48 hrs, etc.) rats were sacrificed. Their brains were then rapidly removed and cortical tissue taken to determine water content, ions and the metabolites of interest at any particular metabolic cascade studied. During the recovery period, the clinical status was evaluated by a set of criteria (NSS).
Trauma induced a significant decrease in specific gravity (SG) of brain tissue and increase in water content following head injury. Edema developed since more water accumulates in either the extracellular (vasogenic) or intracellular (cytotoxic) spaces. The methods employed to determine edema are based on linear gradient columns of bromobenzene and kerosene (for SG) and for water content on drying the tissue in a desiccated oven. Tissue pieces (20 mg each) were placed on top of the column and the SG calculated from the equilibrium position in the column, using a standard curve.
The effect of PRS-211 analogs was calculated by the percent edema formation, where 100% was taken as edema in control, non-treated rats. Thus, the reduction in the SG was calculated as follows: SG(sham)-SG(drug)/SG(sham)-SG(cont) × 100 [formula] The increase in water content was calculated as follows: [%H2O(drug-%H2 O(sham)/%H2 O(cont)-%H2 O(sham)] × 100 [formula] All results presented in the table are statistically different (p<0.05) from control, traumatized vehicle treated rats.

[2] = [3H]MK-801 binding, text to Figure 2, read-out: mean IC50
[3] = displacement of [3H]MK-801, rat forebrain membranes, read-out: NMDA BINDING IC50

In the case of `CCCCCCC(C)(C)c1cc(O)c2c(c1)OC(C)(C)[C@H]1CC=C(CO)C[C@H]21` [211,007-000 HU-211, 1,1 dimethyl heptyl-(3 S,4S)-7-hydroxy-Δ^6-tetrahydrocannabinol, reference compound], the “NMDA receptor binding / affinity” value (NMDA receptor) is reported as “competes with the binding of MK-801”, the IC50 (NMDA receptor; [2]) is reported as 10 µM and the IC50 (NMDA receptor; [3]) is reported as 10 µM. For the same molecule, the Ki (NMDA receptor; inhibition of [3H]MK-801 binding, read-out: inhibition constant (KI)) was 11 ± 1.3 µM, the inhibition at 10 µM (PGE2) was 54% and the “Neurological score 1hr” value [1] was 11.7 ±0.7. For the same molecule, the “ΔNSS 24hr” value [1] was 5.5 ±0.42, the “Neurological score 24hr” value [1] was 6.3 ±0.6 and the “Water content Left” value [1] was 83.09 ±0.51. For the same molecule, the “Water content Right” value [1] was 79.37 ±0.30.
For `CCCCCCC(C)(C)c1cc(O)c2c(c1)OC(C)(C)[C@H]1CC=C(Cn3ccnc3)C[C@H]21` (single isomer, unassigned) [211,095-000], the “NMDA receptor binding / affinity” value (NMDA receptor) was “relatively high affinity”, the IC50 (NMDA receptor; [2]) was 2.5 µM and the IC50 (NMDA receptor; [3]) was 2.5 µM. For the same molecule, the inhibition at 10 µM (PGE2) was 72%, the “edema formation and BBB disruption” value ([1]; given 30 min before, immediately after, or 1 and 2 hours after HT) was “significantly reduces edema formation and BBB disruption” and the “edema and clinical outcome” value ([1]; one dose of 5 mg/kg given 1 hour after the impact, measured 24 hours after HT) was “effectively reduced edema and improved the clinical outcome”. The “Neurological score 1hr” value [1] was 11.9 ±0.6, the “ΔNSS 24hr” value [1] was 6.5 ±0.45 and the “Neurological score 24hr” value [1] was 5.4 ±0.5. For the same molecule, the “Water content Left” value [1] was 82.89 ±0.48 and the “Water content Right” value [1] was 79.75 ±0.20.
